Test results reported in patent US12479847B2 (DANA-FARBER CANCER INSTITUTE, INC., priority 2019, dated 2025).

How the values were obtained:
Test in all cases: KINOMEscan (ScanMAX) kinase profiling
Assay type in all cases: binding
[1] = molecular target: T1, panel of 468 kinases (Homo sapiens, UniProt Q9P286); conditions: PAK7; 1 μM; read-out: % control
T1 construct: purchased KINOMEscan (ScanMAX) service

[2] = molecular target: T2, panel of 468 kinases (Homo sapiens, UniProt O00141); conditions: SGK; 1 μM; read-out: % control
T2 construct: purchased KINOMEscan (ScanMAX) service
T2 sequence (O00141 1-431): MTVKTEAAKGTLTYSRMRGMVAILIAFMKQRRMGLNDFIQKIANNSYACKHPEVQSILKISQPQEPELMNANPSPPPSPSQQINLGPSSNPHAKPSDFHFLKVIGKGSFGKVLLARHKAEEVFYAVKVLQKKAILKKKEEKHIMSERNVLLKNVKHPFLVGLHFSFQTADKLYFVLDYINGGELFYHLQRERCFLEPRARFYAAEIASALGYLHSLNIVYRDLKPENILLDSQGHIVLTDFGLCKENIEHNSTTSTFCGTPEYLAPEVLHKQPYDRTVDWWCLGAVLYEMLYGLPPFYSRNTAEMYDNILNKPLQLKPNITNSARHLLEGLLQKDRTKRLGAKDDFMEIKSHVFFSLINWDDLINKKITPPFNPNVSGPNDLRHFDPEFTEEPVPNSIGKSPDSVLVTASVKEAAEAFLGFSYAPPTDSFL

[3] = molecular target: T3, panel of 468 kinases (Homo sapiens, UniProt P54753); conditions: EPHB3; 1 μM; read-out: % control
T3 construct: purchased KINOMEscan (ScanMAX) service
T3 sequence (P54753 34-998): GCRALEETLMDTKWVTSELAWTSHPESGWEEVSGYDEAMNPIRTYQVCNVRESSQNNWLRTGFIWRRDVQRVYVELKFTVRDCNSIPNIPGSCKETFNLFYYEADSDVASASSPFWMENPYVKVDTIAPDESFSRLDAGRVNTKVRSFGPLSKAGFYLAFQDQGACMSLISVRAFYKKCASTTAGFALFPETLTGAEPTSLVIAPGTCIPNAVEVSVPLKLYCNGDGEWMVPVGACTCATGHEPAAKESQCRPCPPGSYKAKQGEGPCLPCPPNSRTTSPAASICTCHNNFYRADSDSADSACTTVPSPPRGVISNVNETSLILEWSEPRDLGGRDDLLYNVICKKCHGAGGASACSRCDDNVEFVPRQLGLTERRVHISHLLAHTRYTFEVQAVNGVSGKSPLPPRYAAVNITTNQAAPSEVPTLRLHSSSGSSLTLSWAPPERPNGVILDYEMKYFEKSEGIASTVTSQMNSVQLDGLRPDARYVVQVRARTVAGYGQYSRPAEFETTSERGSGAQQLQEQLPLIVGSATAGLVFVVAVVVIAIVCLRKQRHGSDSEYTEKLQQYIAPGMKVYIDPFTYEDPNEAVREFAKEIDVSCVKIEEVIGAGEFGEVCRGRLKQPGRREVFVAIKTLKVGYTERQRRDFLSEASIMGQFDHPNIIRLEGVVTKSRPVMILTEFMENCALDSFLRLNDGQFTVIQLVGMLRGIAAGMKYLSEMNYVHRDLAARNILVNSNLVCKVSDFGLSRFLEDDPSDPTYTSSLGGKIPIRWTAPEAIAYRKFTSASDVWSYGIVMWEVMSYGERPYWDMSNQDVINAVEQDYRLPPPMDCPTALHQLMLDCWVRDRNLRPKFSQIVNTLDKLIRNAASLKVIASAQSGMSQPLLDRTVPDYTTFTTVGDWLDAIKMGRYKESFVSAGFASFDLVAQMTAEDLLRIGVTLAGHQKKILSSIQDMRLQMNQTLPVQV

[4] = molecular target: T4, panel of 468 kinases (Plasmodium falciparum, UniProt P62344); conditions: PFCDPK1(P.falciparum); 1 μM; read-out: % control
T4 construct: purchased KINOMEscan (ScanMAX) service
T4 sequence (P62344 whole entry): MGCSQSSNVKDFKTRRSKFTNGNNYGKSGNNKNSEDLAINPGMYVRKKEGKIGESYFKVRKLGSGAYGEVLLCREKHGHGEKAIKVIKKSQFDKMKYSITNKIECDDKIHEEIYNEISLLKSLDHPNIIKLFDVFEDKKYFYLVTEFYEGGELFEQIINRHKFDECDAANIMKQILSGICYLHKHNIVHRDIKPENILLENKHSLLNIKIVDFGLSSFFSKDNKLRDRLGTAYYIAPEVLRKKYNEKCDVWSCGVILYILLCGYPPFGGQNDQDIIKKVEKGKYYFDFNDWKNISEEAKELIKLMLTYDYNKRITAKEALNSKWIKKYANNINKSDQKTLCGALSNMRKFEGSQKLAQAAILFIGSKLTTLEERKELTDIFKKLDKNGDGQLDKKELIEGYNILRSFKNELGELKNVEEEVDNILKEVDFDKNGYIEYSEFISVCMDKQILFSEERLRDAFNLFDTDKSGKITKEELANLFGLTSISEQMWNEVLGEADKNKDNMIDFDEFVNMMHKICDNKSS

[5] = molecular target: T5, panel of 468 kinases (Homo sapiens, UniProt Q9UBE8); conditions: NLK; 1 μM; read-out: % control
T5 construct: purchased KINOMEscan (ScanMAX) service
T5 sequence (Q9UBE8 1-527): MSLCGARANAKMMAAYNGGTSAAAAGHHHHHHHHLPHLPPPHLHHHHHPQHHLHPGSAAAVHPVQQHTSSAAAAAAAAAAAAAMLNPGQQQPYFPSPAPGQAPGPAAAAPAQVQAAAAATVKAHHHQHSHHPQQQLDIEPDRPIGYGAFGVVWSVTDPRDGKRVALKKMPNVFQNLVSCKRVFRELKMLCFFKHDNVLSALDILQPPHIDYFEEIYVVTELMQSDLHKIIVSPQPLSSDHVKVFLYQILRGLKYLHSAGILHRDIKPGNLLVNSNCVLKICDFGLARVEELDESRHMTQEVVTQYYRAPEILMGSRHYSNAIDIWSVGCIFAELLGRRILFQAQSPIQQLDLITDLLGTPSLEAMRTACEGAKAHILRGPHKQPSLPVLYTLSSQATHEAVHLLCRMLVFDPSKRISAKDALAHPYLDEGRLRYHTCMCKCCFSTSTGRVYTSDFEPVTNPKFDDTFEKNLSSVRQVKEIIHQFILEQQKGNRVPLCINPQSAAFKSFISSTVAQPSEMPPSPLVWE

T1 sequence (Q9P286 whole entry): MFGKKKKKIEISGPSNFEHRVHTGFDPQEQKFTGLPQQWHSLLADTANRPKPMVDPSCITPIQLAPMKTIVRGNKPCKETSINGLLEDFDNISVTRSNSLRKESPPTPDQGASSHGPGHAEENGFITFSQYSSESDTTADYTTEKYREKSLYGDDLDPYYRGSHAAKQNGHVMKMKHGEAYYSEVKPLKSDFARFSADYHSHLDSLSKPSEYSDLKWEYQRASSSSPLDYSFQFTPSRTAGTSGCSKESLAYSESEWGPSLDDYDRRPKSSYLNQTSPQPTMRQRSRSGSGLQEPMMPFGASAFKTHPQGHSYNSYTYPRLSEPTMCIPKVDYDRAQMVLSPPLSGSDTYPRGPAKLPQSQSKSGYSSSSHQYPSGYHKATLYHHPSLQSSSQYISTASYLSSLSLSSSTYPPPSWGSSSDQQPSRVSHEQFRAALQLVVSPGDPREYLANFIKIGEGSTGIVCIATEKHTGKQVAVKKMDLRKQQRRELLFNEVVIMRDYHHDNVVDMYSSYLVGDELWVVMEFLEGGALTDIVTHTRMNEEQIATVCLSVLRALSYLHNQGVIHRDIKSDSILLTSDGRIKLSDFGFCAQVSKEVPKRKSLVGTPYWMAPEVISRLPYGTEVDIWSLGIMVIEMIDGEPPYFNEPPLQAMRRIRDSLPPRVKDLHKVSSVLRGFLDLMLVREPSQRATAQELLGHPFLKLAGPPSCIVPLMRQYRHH

SMILES	remaining binding at 1 µM [1]	remaining binding at 1 µM [2]	remaining binding at 1 µM [3]	remaining binding at 1 µM [4]	remaining binding at 1 µM [5]
CNc1nc(Nc2ccc(C(=O)N3CCC(N4CCOCC4)CC3)c3c2OCO3)nc2[nH]cc(Cl)c12 [Compound 75, (7-((5-chloro-4-(methylamino)-7H-pyrrolo[2,3-d]pyrimidin-2-yl)amino)benzo[d][1,3]dioxol-4-yl)(4-morpholinopiperidin-1-yl)methanone]	97%	7.2%	100%	99%	100%
CNc1nc(Nc2ccc(S(=O)(=O)N3CCC(N4CCOCC4)CC3)cc2OC)nc2[nH]cc(Cl)c12 [Compound 12, 5-chloro-N2-(2-methoxy-4-((4-morpholinopiperidin-1-yl)sulfonyl)phenyl)-N4-methyl-7H-pyrrolo[2,3-d]pyrimidine-2,4-diamine]	100%	89%	100%	97%	100%
CNc1nc(Nc2ccc(P3(=O)CCN(C4CCOCC4)CC3)cc2OC)nc2[nH]cc(Cl)c12 [Compound 77, 4-(4-((5-chloro-4-(methylamino)-7H-pyrrolo[2,3-d]pyrimidin-2-yl)amino)-3-methoxyphenyl)-1-(tetrahydro-2H-pyran-4-yl)-1,4-azaphosphinane 4-oxide]	100%	68%	100%	90%	100%
